Measured values reported in ChEMBL document CHEMBL1687860, “Ring B aromatic norpimarane glucoside from a Xylaria sp” (J Nat Prod, 2011).
pIC50: −log10 of the molar value.

Experiments:
MCF7 = experiment: Cytotoxicity against human MCF7 cells by resazurin microplate assay; assay type: functional, cell-based
Vero = experiment: Cytotoxicity against african green monkey Vero cells by green fluorescent protein microplate assay; assay type: cell-based; settings: Chlorocebus sabaeus
KB = experiment: Cytotoxicity against human KB cells by resazurin microplate assay; assay type: functional, cell-based
NCI-H187 = experiment: Cytotoxicity against human NCI-H187 by resazurin microplate assay; assay type: functional, cell-based

Work on `C=C[C@@]1(C)CCc2c3c(c(O)c(O[C@H]4O[C@H](CO)[C@@H](O)[C@H](O)[C@H]4O)c2[C@H]1O)C(C)(C)CCC3` [XYLOPIMARANE] yielded a pIC50 (MCF7) of 4.89, a pIC50 (Vero) of 4.39 and a pIC50 (KB) of 6.00. It also gave a pIC50 (NCI-H187) of 4.19.
